From patent US11680298B2, “Method of identifying risk of cancer and therapeutic options” (Agency for Science, Technology and Research, priority 2016, dated 2023)
“Also recorded” adds a separate entry of the source.

Columns and labels:
[1] = tested on: PDX-derived tumourspheres; test: Mammosphere (tumoursphere) formation assay, PDX-derived tumourspheres; format: cell-based, human; settings: four different PDX-derived tumourspheres
Experimental: Mammosphere Formation Assay PDX-derived tumoursphere cells were trypsinized and passed through 40 μm cell strainer to achieve single cell suspensions. 3×10^4 cells were seeded in 6-well ultra-low attachment plates (Corning, N.Y.; CLS3471) in serum-free DMEM/F12 supplemented with N2 and B27 (Gibco, Grand Island, N.Y.), 20 ng/ml epidermal growth factor (MACS, Auburn, Calif.), 20 ng/ml basic fibroblast growth factor (MACS, Auburn, Calif.), 0.2 μM Thiazovivin ([…] Technologies, Vancouver, BC) and penicillin/streptomycin (Gibco, Carlsbad, Calif.). For breast cancer cell lines and MCF10A cell line, 3×10^4 cells were seeded in 6-well ultra-low attachment plates in Mammocult medium (Stem Cell Technologies, Vancouver, BC, Canada), supplemented with fresh hydrocortisone (0.5 μg/ml) and heparin (1:500). Mammospheres were maintained at 37° C. with 5% CO2 and topped up with medium every 3 days. After 7-9 days, mammospheres were stained with INT (2-(4-iodophenyl)-3-(4-nitrophenyl)-5-phenyl-2H-tetrazolium chloride, Sigma-Aldrich) and quantified. Imaging and quantification were done using GelCount apparatus and associated software (Oxford Optronix, Abingdon, UK). […] Cell Proliferation Assay

EL12-58 PDX tumours = test: Neoadjuvant breast cancer PDX model of tumour recurrence; format: in vivo, NOD-SCID mice; settings: after paclitaxel-induced regression and surgery; 20 mg/kg paclitaxel, 150 mg/kg pacritinib or both
[2] = Tolerability during treatment in the PDX mouse model; settings: in vivo
Experimental: Surgical procedures and experiments were conducted in compliance with animal protocols approved by the A*STAR-Biopolis Institutional Animal Care and Use Committee of Singapore (IACUC). 6-8 wk old female NOD/MrkBomTac-Prkdcscid mice were purchased from InVivos (Singapore). For PDX orthotopic xenotransplantation, tissue suspension was first prepared from whole tumour explant from mammary fat pad of immunodeficient mice. Whole tumours were washed in PBS, minced with sterile scalpel and triturated until cells could pass through needle bore. The PDX cell suspension was resuspended in reduced Matrigel (BD Bioscience, Cat No: 356230), and then 10 μl was injected into the mammary fat pad. Autoclips was used for primary wound closure. Mice were observed post-procedure for 1-2 hr, and their body weights and wound healing were monitored weekly. Tumours were measured by vernier caliper twice weekly and the tumour volume was calculated with the following formula: V=W×W×L/2.
For in vivo PDX model, each mouse bore one PDX tumour on one side of the mammary fat pad. After the tumours reach 100 mm^3, the mice were randomized into two groups: Vehicle treated control tumour (n=4) and paclitaxel treated tumour ([…]). […] Following the drug treatments, the tumours were monitored for approximately one month. […]

IRAK1 [3] = biological target: T1, IRAK1 (Homo sapiens, UniProt P51617); settings: recently reported; cited from earlier work
IRAK1 [4] = biological target: T1, IRAK1; test: Western blot of phospho-IRAK1 in breast cancer cells and patient-derived tumourspheres; format: cell-based; design: endogenous in cells; host or cells: MB468 and MB231 cells; PDX-derived tumourspheres
Experimental: Recombinant IL-1p (Cat no: 200-01B) was purchased from Peprotech (Rocky Hill, N.J.). Recombinant S100A7 (Cat no: pro-149), S100A8 (Cat no: pro-800) and S100A9 (Cat no: pro-814), were purchased from ProSpec (East Brunswick, N.J.). Cells were treated with recombinant proteins at stated concentration for 20 min before harvesting for western blot. Paclitaxel (Cat no: P-9600) was purchased from LC Lab (Woburn, Mass.).
All immunoblots shown in this specification represent at least two independent experiments. In brief, cells were washed with PBS and lysed in RIPA buffer supplemented with protease and phosphatase inhibitors and further sonicated using an XL2000 Microson Ultrasonice Processor (Misonix). Equal amounts of protein extract were separated on SDS-polyacrylamided gels and transferred to PVDF membranes. Membranes were further blocked with 5% milk or BSA, and then probed with the following antibodies: anti-IRAK1 was purchased from Santa Cruz Biotechnology (Santa Cruz, Calif.; sc-7883), anti-phospho-IRAK1 (T209) was purchased from Assay Biotech (Sunnyvale, Calif.; A1074), anti-JAK2 (Danvers, Mass.; #3230) and anti-phospho-JAK2 ([…]) (Danvers, Mass.: #3774) were purchased from Cell Signaling Technology, anti-actin was purchased from Sigma Aldrich CA; A5441). For protein extraction of xenograft tumours, snap frozen samples were resuspended in RIPA buffer supplemented with protease and phosphatase inhibitors and homogenized with QIAGEN TissueLyzer II as described by the manufacturer, followed by immunoblotting as described above.

T1 sequence (P51617 whole entry): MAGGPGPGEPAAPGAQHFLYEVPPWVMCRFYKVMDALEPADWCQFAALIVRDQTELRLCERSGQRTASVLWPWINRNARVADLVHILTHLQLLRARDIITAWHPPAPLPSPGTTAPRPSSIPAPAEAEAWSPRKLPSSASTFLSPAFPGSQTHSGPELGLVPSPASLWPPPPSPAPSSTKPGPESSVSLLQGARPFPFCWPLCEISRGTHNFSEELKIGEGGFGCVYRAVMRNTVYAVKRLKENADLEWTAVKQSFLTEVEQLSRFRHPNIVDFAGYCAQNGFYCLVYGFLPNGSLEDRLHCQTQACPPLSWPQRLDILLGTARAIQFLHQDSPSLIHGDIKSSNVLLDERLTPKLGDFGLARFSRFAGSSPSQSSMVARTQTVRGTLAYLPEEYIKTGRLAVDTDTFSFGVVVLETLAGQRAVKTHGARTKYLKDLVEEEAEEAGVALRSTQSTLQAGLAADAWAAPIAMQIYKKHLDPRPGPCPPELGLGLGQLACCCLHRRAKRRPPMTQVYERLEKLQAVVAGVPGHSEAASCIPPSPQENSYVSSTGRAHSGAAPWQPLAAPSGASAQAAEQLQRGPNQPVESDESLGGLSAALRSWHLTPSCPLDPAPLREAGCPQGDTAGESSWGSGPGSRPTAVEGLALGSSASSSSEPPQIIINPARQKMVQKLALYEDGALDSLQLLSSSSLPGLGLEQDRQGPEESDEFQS

## C1=C/COCc2cc(ccc2OCCN2CCCC2)Nc2nccc(n2)-c2cccc(c2)COC/1 [pacritinib]
[1]
  tumoursphere growth: strong tumoursphere growth inhibition
EL12-58 PDX tumours
  tumour regrowth after surgical removal of residual tumour: slowed down
[2]
  tolerability: tolerated very well
  toxicity and body weight loss: no obvious toxicity and body weight loss
IRAK1 [3]
  IRAK1 inhibition: potent IRAK1 inhibitor
IRAK1 [4]; MB468 cells, 6 hr pacritinib treatment, western blot
  phosphorylation of IRAK1: inhibition of phospho-IRAK1 and phospho-JAK2 within 6 hr; also recorded: effectively block the phosphorylation of both IRAK1 and JAK2 as early as 6 hours in a dose-dependent manner
IRAK1 [4]; patient-derived (PDX-derived) tumoursphere cells, 24 hr, pacritinib 2.5 μM, with and without IL-1
  phospho-IRAK1: prolonged inhibition of phospho-IRAK1; also recorded: sustained inhibition of phospho-IRAK1
